From patent US6340764B1, “Reference compound for use in the analysis of levosimendan batches” (Orion Corporation, priority 1998, dated 2002)

Test system: bacterial mutagenity test (Ames test)
Assay: bacterial mutagenity test (Ames test)
Format: cell-based

| SMILES | genotoxic / mutagenic properties in the bacterial mutagenity test (Ames test) |
| --- | --- |
| CC1CC(=O)OC1(N=[N+]=[N-])c1ccc(NN=C(C#N)C#N)cc1 (centres unmarked) [Compound (I), [[4-(2-azido-3-methyl-5-oxotetrahydrofuran-2-yl)phenyl]hydrazono]propanedinitrile] | potent mutagen |
| CC1CC(=O)NN=C1c1ccc(NN=C(C#N)C#N)cc1 (single isomer, unassigned; (-)) [levosimendan, (−)-enantiomer of [[4-(1,4,5,6-tetrahydro-4-methyl-6-oxo-3-pyridazinyl)phenyl]hydrazono]propanedinitrile] | show potential genotoxic properties occasionally |
